Measured values published in ChEMBL document CHEMBL6153110, “Peptide Double-Stapling and Arginine N-Glycosylation Triggered the Development of Therapeutic Antimicrobial Peptides Capable of Killing Drug-Resistant Bacteria in Mice” (J Med Chem, 2025).
≈ marks a conversion by molar mass, not a printed value. Calls of active or inactive are those of the source. The calls are words filed in the database; no cut-off is given here. Positions of bridges follow the written chain, without caps; N, C: chain ends. Non-standard residues stand in square brackets, D forms with d. Residues, ends and D or L forms follow the SMILES beside them. Arg(Nω-βLac) = N=C(NCCC[C@H](N)C(=O)O)N[C@@H]1O[C@H](CO)[C@@H](O[C@@H]2O[C@H](CO)[C@H](O)[C@H](O)[C@H]2O)[C@H](O)[C@H]1O; S5 = C=CCCC[C@](C)(N)C(=O)O

Assays:
[1] = system: Cell membrane; assay: Induction of cell membrane damage in methicillin-resistant Staphylococcus aureus ATCC 43300 assessed as increase in red fluorescence at MIC measured after 1 hr incubation by PI based flow cytometry; type: subcellular
[2] = Toxicity in mouse skin assessed as abscesses and visual lesions at 40 mg/kg, sc by histological analysis; type: organism-based; details: in vivo
[3] = system: Staphylococcus aureus; assay: In vivo antibacterial activity against methicillin-resistant Staphylococcus aureus ATCC 43300 infected locally in full thickness skin wound mouse model assessed as decrease in edema and ulcerative tissue in wound at 4 mg/kg treated with absorbable gelatin sponge measured after 7 days; type: functional, organism-based; details: time 7.0 day
[4] = system: Cell membrane; assay: Induction of cell membrane damage in Klebsiella pneumoniae ATCC 13883 assessed as significant plasma membrane rupture, cytosolic membrane and outer membrane separation, and cytoplasmic leakage at MIC measured after 1 hr incubation by Transmission electron microscopy; type: subcellular
[5] = system: Cell membrane; assay: Induction of cell membrane damage in methicillin-resistant Staphylococcus aureus ATCC 43300 assessed as corrugation, blebbing, breakage, and fragmentation at MIC measured after 1 hr incubation by Scanning electron microscopy; type: subcellular
[6] = system: Staphylococcus aureus; assay: In vivo antibacterial activity against methicillin-resistant Staphylococcus aureus ATCC 43300 infected locally in full thickness skin wound mouse model assessed as reduction in bacterial load in skin wound at 1 mg/kg treated with absorbable gelatin sponge measured after 7 days; type: functional, organism-based; details: time 7.0 day
[7] = system: Streptococcus pneumoniae; assay: Antimicrobial activity against Streptococcus pneumoniae ATCC 49619 assessed as growth inhibition measured after 8 hrs incubation by standard broth dilution assay; type: functional
[8] = system: Klebsiella pneumoniae; assay: Antibiofilm activity in Klebsiella pneumoniae ATCC 13883 assessed as prevention of biofilm formation at 0.5 to 4 times of MIC measured after 24 hrs by crystal violet staining based assay; type: functional, organism-based
[9] = Hemolytic activity in BALB/c mouse red blood cells assessed as hemolysis incubated for 1 hrs; type: toxicity, cell-based, Erythrocyte; details: read-out: HD50
[10] = system: Cell membrane; assay: Binding affinity to methicillin-resistant Staphylococcus aureus ATCC 43300 cell membrane treated with FITC labelled peptides at MIC measured after 1.5 hr by CLSM imaging analysis; type: subcellular
[11] = system: Klebsiella pneumoniae; assay: Antibacterial activity against Klebsiella pneumoniae ATCC 13883 assessed as reduction in bacterial count at 4.6 ug/ml in bio-film adjusted BM2 medium; type: functional, organism-based; details: dose 4.6 µg/ml
[12] = system: Staphylococcus aureus; assay: Antibiofilm activity in methicillin-resistant Staphylococcus aureus ATCC 43300 assessed as prevention of biofilm formation at 0.5 to 4 times of MIC measured after 24 hrs by crystal violet staining based assay; type: functional, organism-based
[13] = system: Staphylococcus aureus; assay: In vivo antibacterial activity against methicillin-resistant Staphylococcus aureus ATCC 43300 infected locally in full thickness skin wound mouse model assessed as reduction in inflammatory cells in wound at 4 mg/kg treated with absorbable gelatin sponge measured after 7 days; type: functional, organism-based; details: time 7.0 day
[14] = system: Cell membrane; assay: Induction of cell membrane damage in Klebsiella pneumoniae ATCC 13883 assessed as increase in red fluorescence at MIC measured after 1 hr incubation by PI based flow cytometry; type: subcellular
[15] = system: Staphylococcus aureus; assay: Antibacterial activity against methicillin-resistant Staphylococcus aureus ATCC 43300 assessed as reduction in bacterial count at 4.6 ug/ml in bio-film adjusted BM2 medium; type: functional, organism-based; details: dose 4.6 µg/ml
[16] = system: Cell membrane; assay: Induction of cell membrane damage in Klebsiella pneumoniae ATCC 13883 assessed as increase in green fluorescence at MIC measured after 1 hr incubation by SYTO9 confocal microscopy; type: subcellular

## CC(=O)N[C@@H](CCCCN)C(=O)N[C@@H](CCCCN)C(=O)N[C@@H](CCCNC(=N)N)C(=O)N[C@H](C(=O)N[C@@H](CCCCN)C(=O)N[C@@H](CCCCN)C(=O)N[C@@H](CCCNC(=N)N)C(=O)N[C@@]1(C)CCC/C=C\CCC[C@@](C)(C(=O)N[C@@H](CCCCN)C(=O)N[C@@]2(C)CCC/C=C\CCC[C@@](C)(C(=O)N[C@@H](CC(C)C)C(=O)N[C@@H](CCCCN)C(=O)N[C@@H](CCCCN)C(=O)N3CCC[C@H]3C(=O)N[C@H](C(=O)N[C@@H](CCCNC(=N)N[C@@H]3O[C@H](CO)[C@@H](O[C@@H]4O[C@H](CO)[C@H](O)[C@H](O)[C@H]4O)[C@H](O)[C@H]3O)C(N)=O)C(C)C)NC(=O)[C@H](CCCNC(=N)N)NC(=O)[C@H](Cc3c[nH]c4ccccc34)NC(=O)[C@H](Cc3ccc(O)cc3)NC2=O)NC(=O)[C@H](CC(C)C)NC(=O)[C@H](CCCCN)NC(=O)[C@H](Cc2ccccc2)NC1=O)C(C)C (Ac-KKRVKKR[S5]FKL[S5]K[S5]YWR[S5]LKKPV[Arg(Nω-βLac)]-NH2; staple (Z) 8-12, 14-18)
[1]
  Activity: Active
[2]
  Activity: Non-toxic
[3]
  Activity: Active
[4]
  Activity: Active
[5]
  Activity: Active
[6]
  Activity: Active
[7]
  MIC: 1.1 µg/mL (≈ 0.31 µM)
[8]
  Activity: Dose-dependent-effect
[9]
  HC50 at 1 h: 87.6 µg/mL
[10]
  Activity: Active; Compound Exhibited Brighter Red
[11]
  Activity: inactive
[12]
  Activity: Dose-dependent-effect
[13]
  Activity: Active
[14]
  Activity: Active
[15]
  Activity: inactive
[16]
  Activity: Active
